Experiments:
[1] = Storage stability of crystalline Form 1, XRPD spectrum before and after storage; assay type: physicochemical
Method: X-Ray Powder Diffraction patterns were collected on a Bruker D8 diffractometer using Cu Kα radiation (40 kV, 40 mA), θ-2θ goniometer, and divergence of V4 and receiving slits, a Ge monochromator and a Lynxeye detector. Samples were run under ambient conditions as flat plate specimens. The sample was gently packed into a cavity cut into polished, zero-background (510) silicon wafer. The parameters of the data collection are: • Angular range: 2 to 42°2θ • Step size: 0.05°2θ • Collection time: 0.5 s/step
A sample of the steroid-like compound in crystalline Form 1 was stored for 7 days at 40° C. and 75% relative humidity. After that time an XRPD spectrum was obtained and compared to the XRPD spectrum of the sample before the storage at the elevated temperature and humidity. […] Similarly, another sample of the steroid-like compound in crystalline Form 1 was stored for 1 year at room temperature (21° C. and uncontrolled relative humidity).

[2] = Conversion of substantially amorphous material to crystalline Form 1 at elevated temperature and/or humidity; assay type: physicochemical
Text: In certain embodiments, a substantially amorphous form of the steroid-like compound contemplated for use herein can be converted into crystalline Form 1 by subjecting said amorphous material to elevated temperatures and/or elevated humidity sufficient to promote the desired conversion.
As used herein, “substantial portion thereof” refers to the major portion of the sample in question, i.e., greater than 50% of the sample, undergoes conversion from the amorphous form thereof to crystalline Form 1; in some embodiments, greater than 60% of the sample undergoes conversion from the amorphous form thereof to crystalline Form 1; in some embodiments, greater than 70% of the sample undergoes conversion from the amorphous form thereof to crystalline Form 1; in some embodiments, greater than 80% of the sample undergoes conversion from the amorphous form thereof to crystalline Form 1; in some embodiments, greater than 90% of the sample undergoes conversion from the amorphous form thereof to crystalline Form 1.

SMILES | change in the XRPD spectrum after storage ([1]; stored for 1 year at room temperature (21° C. and uncontrolled relative humidity)) | change in the XRPD spectrum after storage ([1]; stored for 7 days at 40° C. and 75% relative humidity) | solid form conversion on exposure ([2]; 75% relative humidity at about 40° C. for about 1 week) | solid form conversion on exposure ([2]; 97% relative humidity at room temperature (about 25° C.) for about 2 weeks) | solid form conversion on exposure ([2]; temperature higher than about 110° C. for at least about 1 hour)
C[C@]12CCC(=O)C=C1CC[C@@H]1[C@@H]2[C@@H](O)C[C@@]2(C)[C@H]1CC[C@]2(OC(=O)c1ccccc1)C(=O)CO [crystalline Form 1] | no change | No noticeable change | – | – | –
C[C@]12CCC(=O)C=C1CC[C@@H]1[C@@H]2[C@@H](O)C[C@@]2(C)[C@H]1CC[C@]2(OC(=O)c1ccccc1)C(=O)CO [substantially amorphous form] | – | – | conversion of a substantial portion thereof to crystalline Form 1 | conversion of a substantial portion thereof to crystalline Form 1 | conversion of a substantial portion thereof to crystalline Form 1
